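Abbreviation: GI50, concentration required for 50% inhibition of growth. TGI: total growth inhibition.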
Columns and labels:
Experiment in all cases: growth of human tumour cells (NCI), 384-well format
[1] = system: HOP-62 NSCLC
[2] = system: MDA-MB-435 melanoma
[3] = system: T-47D breast
[4] = system: NCI-H23 lung
[5] = system: UACC-62 melanoma
[6] = system: KM12 colon
[7] = system: OVCAR-5 ovarian
[8] = system: K-562 leukemia
[9] = system: A549 NSCLC
[10] = system: SNB-75 CNS
[11] = system: NCI-H322M lung
[12] = system: NCI-H226 lung
[13] = system: IGROV1 ovarian
[14] = system: DU-145 prostate
[15] = system: A498 renal
[16] = system: MDA-MB-468 breast
[17] = system: MALME-3M melanoma
[18] = system: BT-549 breast
[19] = system: ACHN renal
[20] = system: OVCAR-4 ovarian
[21] = system: SN12C renal
[22] = system: SK-OV-3 ovarian
[23] = system: HOP-92 NSCLC
[24] = system: 786-0 renal
[25] = system: HT29 colon
[26] = system: EKVX NSCLC
[27] = system: M14 melanoma
[28] = system: SK-MEL-28 melanoma

## O=C1c2c(O)ccc(O)c2C(=O)c2c(NCCNCCO)ccc(NCCNCCO)c21
[1]
  GI50: < 10 nM
  TGI: 16 nM
[2]
  GI50: 125 nM
  TGI: 1100 nM
[3]
  GI50: 29.8 nM
  TGI: 1420 nM
[4]
  GI50: 12.9 nM
  TGI: 102 nM
[5]
  GI50: < 10 nM
  TGI: 148 nM
[6]
  GI50: 44.7 nM
  TGI: 284 nM
[7]
  GI50: 24.3 nM
  TGI: 284 nM
[8]
  GI50: 48.1 nM
  TGI: 240 nM
[9]
  GI50: < 10 nM
  TGI: 181 nM
[10]
  GI50: 22.9 nM
  TGI: 130 nM
[11]
  GI50: 313 nM
  TGI: 1760 nM
[12]
  GI50: 13.4 nM
  TGI: 163 nM
[13]
  GI50: 185 nM
  TGI: 5370 nM
[14]
  GI50: 19.6 nM
  TGI: 650 nM
[15]
  GI50: 11.4 nM
  TGI: 217 nM
[16]
  GI50: 16.8 nM
  TGI: 59.8 nM
[17]
  GI50: 61.1 nM
  TGI: 388 nM
[18]
  GI50: 15.5 nM
  TGI: 195 nM
[19]
  GI50: 33.3 nM
  TGI: 251 nM
[20]
  GI50: 171 nM
  TGI: 660 nM
[21]
  GI50: < 10 nM
  TGI: 55.5 nM
[22]
  GI50: 17.7 nM
  TGI: 661 nM
[23]
  GI50: 24.8 nM
  TGI: 1190 nM
[24]
  GI50: 10.3 nM
  TGI: 246 nM
[25]
  GI50: 34.4 nM
  TGI: 187 nM
[26]
  GI50: 589 nM
  TGI: 3540 nM
[27]
  GI50: 17.7 nM
  TGI: 334 nM
[28]
  GI50: 116 nM

Reference: PubChem BioAssay (NCI)
